What follows are molecules tested against human GLP-1 receptor (Homo sapiens (Human), UniProt P43220). Conditions: read-out: Mean EC50; cAMP, HTRF detection, 30 min at 37° C., HEK-293 cells expressing cloned human GLP-1 receptor.
Sequence of human GLP-1 receptor (P43220 24-463): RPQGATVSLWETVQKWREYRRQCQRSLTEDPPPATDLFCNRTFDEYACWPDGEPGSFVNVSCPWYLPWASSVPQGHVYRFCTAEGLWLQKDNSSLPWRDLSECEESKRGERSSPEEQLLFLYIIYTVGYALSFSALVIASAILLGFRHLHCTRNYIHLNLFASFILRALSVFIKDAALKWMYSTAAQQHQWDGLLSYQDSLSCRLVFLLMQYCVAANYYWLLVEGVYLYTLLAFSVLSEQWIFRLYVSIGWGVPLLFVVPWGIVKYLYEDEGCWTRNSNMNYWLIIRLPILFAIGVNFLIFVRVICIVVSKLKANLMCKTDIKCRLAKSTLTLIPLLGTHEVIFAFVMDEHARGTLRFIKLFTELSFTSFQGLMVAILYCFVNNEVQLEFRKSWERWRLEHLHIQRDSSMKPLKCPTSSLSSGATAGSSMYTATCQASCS

EC50 | SMILES
0.034 µM | Cc1nc(C(=O)N2Cc3cc4c(cc3C[C@H]2C(=O)N[C@@H](Cc2ccc(-c3ccnc(C)c3C)cc2)C(=O)O)OC[C@H](c2ccc(OCCc3ccc(Cl)c(Cl)c3)cc2)O4)c(C)o1 [Example 387, (S)-2-{[(3S,8S)-3-{4-[2-(3,4-Dichloro-phenyl)-ethoxy]-phenyl}-7-(2,5-dimethyl-oxazole-4-carbonyl)-2,3,6,7,8,9-hexahydro-[1,4]dioxino[2,3-g]isoquinoline-8-carbonyl]-amino}-3-[4-(2,3-dimethyl-pyridin-4-yl)-phenyl]-propionic acid]
0.179 µM | Cc1nccc(-c2ccc(C[C@H](NC(=O)[C@@H]3Cc4cc5c(cc4CN3C(=O)N[C@H](C)c3ccccc3)O[C@@H](c3ccc(OCCc4ccc(Cl)cc4)cc3)CO5)C(=O)O)cc2)c1C [Example 388, (S)-2-{[(3S,8S)-3-{4-[2-(4-Chloro-phenyl)-ethoxy]-phenyl}-7-((R)-1-phenyl-ethylcarbamoyl)-2,3,6,7,8,9-hexahydro-[1,4]dioxino[2,3-g]isoquinoline-8-carbonyl]-amino}-3-[4-(2,3-dimethyl-pyridin-4-yl)-phenyl]-propionic acid]
0.191 µM | Cc1nccc(-c2ccc(C[C@H](NC(=O)[C@@H]3Cc4cc5c(cc4CN3C(=O)N[C@H](C)c3ccccc3)O[C@@H](c3ccc(O[C@H]4CC[C@H](C(C)(C)C)CC4)cc3)CO5)C(=O)O)cc2)c1C [Example 389, (S)-2-{[(3S,8S)-3-[4-(trans-4-tert-Butyl-cyclohexyloxy)-phenyl]-7-((R)-1-phenyl-ethylcarbamoyl)-2,3,6,7,8,9-hexahydro-[1,4]dioxino[2,3-g]isoquinoline-8-carbonyl]-amino}-3-[4-(2,3-dimethyl-pyridin-4-yl)-phenyl]-propionic acid]
0.074 µM | Cc1nccc(-c2ccc(C[C@H](NC(=O)[C@@H]3Cc4cc5c(cc4CN3C(=O)N[C@H](C)c3ccccc3)O[C@@H](c3ccc(OCc4cc(Cl)cc(Cl)c4)cc3)CO5)C(=O)O)cc2)c1C [Example 393, (S)-2-{[(3S,8S)-3-[4-(3,5-dichloro-benzyloxy)-phenyl]-7-((R)-1-phenyl-ethylcarbamoyl)-2,3,6,7,8,9-hexahydro-[1,4]dioxino[2,3-g]isoquinoline-8-carbonyl]-amino}-3-[4-(2,3-dimethyl-pyridin-4-yl)-phenyl]-propionic acid]
0.156 µM | Cc1nccc(-c2ccc(C[C@H](NC(=O)[C@@H]3Cc4cc5c(cc4CN3C(=O)N[C@H](C)c3ccccc3)O[C@@H](c3ccc(OCCc4ccc(Cl)c(Cl)c4)cc3)CO5)C(=O)O)cc2)c1C [Example 396, (S)-2-{[(3S,8S)-3-{4-[2-(3,4-Dichloro-phenyl)-ethoxy]-phenyl}-7-((R)-1-phenyl-ethylcarbamoyl)-2,3,6,7,8,9-hexahydro-[1,4]dioxino[2,3-g]isoquinoline-8-carbonyl]-amino}-3-[4-(2,3-dimethyl-pyridin-4-yl)-phenyl]-propionic acid]
0.138 µM | Cc1nccc(Oc2ccc(C[C@H](NC(=O)[C@@H]3Cc4cc5c(cc4CN3C(=O)OC(C)(C)C)O[C@@H](c3ccc(OCc4ccc(Cl)c(Cl)c4)cc3)CO5)C(=O)O)cc2)c1C [Example 403, (3S,8S)-8-{(S)-1-Carboxy-2-[4-(2,3-dimethyl-pyridin-4-yloxy)-phenyl]-ethylcarbamoyl}-3-[4-(3,4-dichloro-benzyloxy)-phenyl]-2,3,8,9-tetrahydro-6H-[1,4]dioxino[2,3-g]isoquinoline-7-carboxylic acid tert-butyl ester]
0.213 µM | Cc1nc(C(=O)N2Cc3cc4c(cc3C[C@H]2C(=O)N[C@@H](Cc2ccc(-c3ccnc(C)c3C)cc2)C(=O)O)OC[C@H](c2ccc(OCC3CCCCC3)cc2)O4)c(C)o1 [Example 405, (S)-2-{[(3S,8S)-3-(4-Cyclohexylmethoxy-phenyl)-7-(2,5-dimethyl-oxazole-4-carbonyl)-2,3,6,7,8,9-hexahydro-[1,4]dioxino[2,3-g]isoquinoline-8-carbonyl]-amino}-3-[4-(2,3-dimethyl-pyridin-4-yl)-phenyl]-propionic acid]
0.024 µM | Cc1nccc(-c2ccc(C[C@H](NC(=O)[C@@H]3Cc4cc5c(cc4CN3C(=O)c3cccc(F)c3)O[C@@H](c3ccc(OCc4ccc(Cl)c(Cl)c4)cc3)CO5)C(=O)O)cc2)c1C [Example 409, (S)-2-{[(3S,8S)-3-[4-(3,4-Dichloro-benzyloxy)-phenyl]-7-(3-fluoro-benzoyl)-2,3,6,7,8,9-hexahydro-[1,4]dioxino[2,3-g]isoquinoline-8-carbonyl]-amino}-3-[4-(2,3-dimethyl-pyridin-4-yl)-phenyl]-propionic acid]
0.009 µM | Cc1nc(N)sc1S(=O)(=O)N1Cc2cc3c(cc2C[C@H]1C(=O)N[C@@H](Cc1ccc(-c2ccnc(C)c2C)cc1)C(=O)O)OC[C@H](c1ccc(OCc2ccc(Cl)c(Cl)c2)cc1)O3 [Example 411, (S)-2-({(3S,8S)-7-(2-Amino-4-methyl-thiazole-5-sulfonyl)-3-[4-(3,4-dichloro-benzyloxy)-phenyl]-2,3,6,7,8,9-hexahydro-[1,4]dioxino[2,3-g]isoquinoline-8-carbonyl}-amino)-3-[4-(2,3-dimethyl-pyridin-4-yl)-phenyl]-propionic acid]
0.191 µM | Cc1nccc(-c2ccc(C[C@H](NC(=O)[C@@H]3Cc4cc5c(cc4CN3C(=O)N[C@H](C)c3ccccc3)O[C@@H](c3cccc(OCc4ccc(Cl)c(Cl)c4)c3)CO5)C(=O)O)cc2)c1C [Example 414, (S)-2-{[(3S,8S)-3-[3-(3,4-Dichloro-benzyloxy)-phenyl]-7-((R)-1-phenylethylcarbamoyl)-2,3,6,7,8,9-hexahydro-[1,4]dioxino[2,3-g]isoquinoline-8-carbonyl]-amino}-3-[4-(2,3-dimethyl-pyridin-4-yl)-phenyl]-propionic acid]
0.075 µM | Cc1nc(C(=O)N2Cc3cc4c(cc3C[C@H]2C(=O)N[C@@H](Cc2ccc(-c3ccnc(C)c3C)cc2)C(=O)O)OC[C@H](c2cccc(OCc3ccc(Cl)c(Cl)c3)c2)O4)c(C)o1 [Example 415, (S)-2-{[(3S,8S)-3-[3-(3,4-Dichloro-benzyloxy)-phenyl]-7-(2,5-dimethyl-oxazole-4-carbonyl)-2,3,6,7,8,9-hexahydro-[1,4]dioxino[2,3-g]isoquinoline-8-carbonyl]-amino}-3-[4-(2,3-dimethyl-pyridin-4-yl)-phenyl]-propionic acid]
0.09 µM | CC[C@@H](c1ccccc1)N1Cc2cc3c(cc2C[C@H]1C(=O)N[C@@H](Cc1ccc(-c2ccnc(C)c2C)cc1)C(=O)O)OC[C@H](c1cccc(OCc2ccc(Cl)c(Cl)c2)c1)O3 [Example 419, (S)-2-{[(3S,8S)-3-[3-(3,4-Dichloro-benzyloxy)-phenyl]-7-((S)-1-phenyl-propyl)-2,3,6,7,8,9-hexahydro-[1,4]dioxino[2,3-g]isoquinoline-8-carbonyl]-amino}-3-[4-(2,3-dimethyl-pyridin-4-yl)-phenyl]-propionic acid]
0.008 µM | CC[C@@H](c1ccccc1)N1Cc2cc3c(cc2C[C@H]1C(=O)N[C@@H](Cc1ccc(Oc2ccnc(C)c2C)cc1)C(=O)O)OC[C@H](c1cccc(OCc2ccc(Cl)c(Cl)c2)c1)O3 [Example 422, (S)-2-{[(3S,8S)-3-[3-(3,4-Dichloro-benzyloxy)-phenyl]-7-((S)-1-phenyl-propyl)-2,3,6,7,8,9-hexahydro-[1,4]dioxino[2,3-g]isoquinoline-8-carbonyl]-amino}-3-[4-(2,3-dimethyl-pyridin-4-yloxy)-phenyl]-propionic acid]
0.203 µM | CC[C@@H](c1ccccc1)N1Cc2cc3c(cc2C[C@H]1C(=O)N[C@@H](Cc1ccc(-c2ccnc(C)c2C)cc1)C(=O)O)OC[C@H](c1ccc(Oc2ccccc2)cc1)O3 [Example 424, (S)-3-[4-(2,3-Dimethyl-pyridin-4-yl)-phenyl]-2-{[(3S,8S)-3-(4-phenoxy-phenyl)-7-((S)-1-phenyl-propyl)-2,3,6,7,8,9-hexahydro-[1,4]dioxino[2,3-g]isoquinoline-8-carbonyl]-amino}-propionic acid]
0.084 µM | Cc1nccc(-c2ccc(C[C@H](NC(=O)[C@@H]3Cc4cc5c(cc4CN3C(=O)OC(C)(C)C)O[C@H](c3ccc(OCc4ccc(Cl)c(Cl)c4)cc3)CO5)C(=O)O)cc2)c1C [Example 427, (3R,8S)-8-{(S)-1-Carboxy-2-[4-(2,3-dimethyl-pyridin-4-yl)-phenyl]-ethylcarbamoyl}-3-[4-(3,4-dichloro-benzyloxy)-phenyl]-2,3,8,9-tetrahydro-6H-[1,4]dioxino[2,3-g]isoquinoline-7-carboxylic acid tert-butyl ester]
0.022 µM | Cc1nc(C(=O)N2Cc3cc4c(cc3C[C@H]2C(=O)N[C@@H](Cc2ccc(-c3ccnc(C)c3C)cc2)C(=O)O)OC[C@@H](c2ccc(OCc3ccc(Cl)c(Cl)c3)cc2)O4)c(C)o1 [Example 428, (S)-2-{[(3R,8S)-3-[4-(3,4-Dichloro-benzyloxy)-phenyl]-7-(2,5-dimethyl-oxazole-4-carbonyl)-2,3,6,7,8,9-hexahydro-[1,4]dioxino[2,3-g]isoquinoline-8-carbonyl]-amino}-3-[4-(2,3-dimethyl-pyridin-4-yl)-phenyl]-propionic acid]
0.032 µM | Cc1nccc(-c2ccc(C[C@H](NC(=O)[C@@H]3Cc4cc5c(cc4CN3C(=O)N[C@H](C)c3ccccc3)O[C@H](c3ccc(OCc4ccc(Cl)c(Cl)c4)cc3)CO5)C(=O)O)cc2)c1C [Example 429, (S)-2-{[(3R,8S)-3-[4-(3,4-Dichloro-benzyloxy)-phenyl]-7-((R)-1-phenyl-ethylcarbamoyl)-2,3,6,7,8,9-hexahydro-[1,4]dioxino[2,3-g]isoquinoline-8-carbonyl]-amino}-3-[4-(2,3-dimethyl-pyridin-4-yl)-phenyl]-propionic acid]

SMILES | EC50
CC[C@@H](c1ccccc1)N1Cc2cc3c(cc2C[C@H]1C(=O)N[C@@H](Cc1ccc(-c2ccnc(C)c2C)cc1)C(=O)O)OC[C@@H](c1ccc(OCc2ccc(Cl)c(Cl)c2)cc1)O3 [Example 430, (S)-2-{[(3R,8S)-3-[4-(3,4-Dichloro-benzyloxy)-phenyl]-7-((S)-1-phenyl-propyl)-2,3,6,7,8,9-hexahydro-[1,4]dioxino[2,3-g]isoquinoline-8-carbonyl]-amino}-3-[4-(2,3-dimethyl-pyridin-4-yl)-phenyl]-propionic acid] | 0.012 µM

— patent US9175003B2, “Substituted azoanthracene derivatives and intermediates for preparation thereof” (TransTech Pharma, LLC, priority 2009, dated 2015)
